In test [1] the target is T1, TYK2 (Homo sapiens, UniProt P29597). The experiment in a line: HEK-Blue IFNα/β reporter assay (SEAP) for TYK2 pseudokinase inhibition. In kind it is cell-based. The settings on record: HEK-Blue IFNα/β cells, 1 ng/mL human recombinant IFNα. In short, it runs like this: (§1)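 HEK-Blue cells carrying cytokine receptor and STAT3 or STAT1 SEAP reporter, pretreated 60 min with compound, then stimulated with 10 ng/mL IL-23 (22–24 h) or 1 ng/mL IFNα (16–18 h). SEAP read with QUANTI-Blue; IC50 by non-linear regression versus no-inhibitor and unstimulated controls.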
T1 sequence (P29597 whole entry): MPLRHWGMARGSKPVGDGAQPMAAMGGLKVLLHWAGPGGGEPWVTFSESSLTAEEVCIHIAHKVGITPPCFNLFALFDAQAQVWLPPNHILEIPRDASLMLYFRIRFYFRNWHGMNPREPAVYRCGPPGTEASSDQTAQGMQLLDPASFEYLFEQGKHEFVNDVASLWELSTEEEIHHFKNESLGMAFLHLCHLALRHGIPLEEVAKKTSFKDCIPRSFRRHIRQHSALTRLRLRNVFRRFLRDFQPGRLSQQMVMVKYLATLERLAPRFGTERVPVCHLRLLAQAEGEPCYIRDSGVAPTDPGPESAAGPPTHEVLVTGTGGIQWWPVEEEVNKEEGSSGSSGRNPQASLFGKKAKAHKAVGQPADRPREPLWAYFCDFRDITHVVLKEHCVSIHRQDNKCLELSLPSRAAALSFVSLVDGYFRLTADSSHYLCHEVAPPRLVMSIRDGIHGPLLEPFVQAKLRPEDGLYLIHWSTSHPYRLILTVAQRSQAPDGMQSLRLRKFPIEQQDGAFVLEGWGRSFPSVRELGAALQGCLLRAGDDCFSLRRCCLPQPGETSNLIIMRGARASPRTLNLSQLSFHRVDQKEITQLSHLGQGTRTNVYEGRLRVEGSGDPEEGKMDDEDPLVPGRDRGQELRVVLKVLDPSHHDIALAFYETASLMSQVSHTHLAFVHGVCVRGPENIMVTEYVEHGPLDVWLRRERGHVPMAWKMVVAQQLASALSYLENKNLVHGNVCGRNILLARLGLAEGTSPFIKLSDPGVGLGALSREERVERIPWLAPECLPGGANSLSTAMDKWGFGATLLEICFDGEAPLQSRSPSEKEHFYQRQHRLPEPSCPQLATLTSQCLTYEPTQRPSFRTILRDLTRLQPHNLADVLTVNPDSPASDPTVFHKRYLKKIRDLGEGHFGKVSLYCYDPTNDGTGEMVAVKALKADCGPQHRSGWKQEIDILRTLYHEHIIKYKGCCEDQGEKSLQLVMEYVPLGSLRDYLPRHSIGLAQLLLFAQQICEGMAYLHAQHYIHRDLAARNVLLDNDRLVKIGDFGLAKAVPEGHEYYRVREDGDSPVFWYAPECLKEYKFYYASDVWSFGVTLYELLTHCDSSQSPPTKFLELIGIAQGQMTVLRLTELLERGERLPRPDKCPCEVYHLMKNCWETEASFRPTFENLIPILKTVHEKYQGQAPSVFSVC

Test [2] deals with T2, TYK2-JH1 (Homo sapiens, UniProt P29597).
T2 construct: recombinant purified His or GST-tagged catalytic domain for each enzyme; made in house
T2 sequence (P29597 897-1176 limits assumed): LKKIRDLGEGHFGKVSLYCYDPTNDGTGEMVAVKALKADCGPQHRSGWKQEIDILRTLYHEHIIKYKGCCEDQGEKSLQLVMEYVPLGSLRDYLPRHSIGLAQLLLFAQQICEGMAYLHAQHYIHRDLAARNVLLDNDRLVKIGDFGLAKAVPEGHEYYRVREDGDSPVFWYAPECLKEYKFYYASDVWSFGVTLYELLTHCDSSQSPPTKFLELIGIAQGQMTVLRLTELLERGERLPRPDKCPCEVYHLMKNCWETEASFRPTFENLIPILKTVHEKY
The experiment in a line: HTRF-based selectivity assay, TYK2 catalytic domain. The settings on record: kinase domain (JH1), ATP 20 μM. In kind it is biochemical. The procedure: (§2) The ability of compounds to inhibit the activity of JAK1, JAK2, JAK3 and TYK2 is measured using a recombinant purified His or GST-tagged catalytic domain for each enzyme (JAK1, JAK2 and TYK2 are generated in-house; JAK3 was purchased from Carna biosciences, Cat #08-046) in an HTRF format biochemical assay. The reactions employs a commercial peptide substrate from Cisbio (Cat #62TK0PEC). The basic assay protocol is as follows: first, 2.5 µL of diluted compounds (4×) in DMSO are dispensed into a 384-well Optiplate. Next, 2.5 μL of enzyme (final concentrations for enzymes are: TYK2-700 ng/mL, JAK1-80.6 ng/mL, JAK2-2.1 ng/mL and JAK3-171.8 ng/mL) is added and incubated at RT for 5-20 min. Finally, 5 μl of mixture of 2×ATP [Final concentration 20 μM for TYK2, 21.43 μM for JAK1, 14.7 μM for JAK2 and 2.12 μM for JAK3]+2× Substrate [Final concentration 217 nM for TYK2, 454.7 nM for JAK1, 200 nM for JAK2 and 257.4 nM for JAK3] is added to 384 well Optiplate. Composition of Kinase assay buffer used in the assay is as follows: HEPES 50 mM, EGTA 1 mM, MgCl2 10 mM, DTT2 mM, Tween-20 0.010 and water. Then the plates are shaken and then incubated at 26.5° C. for 60 min. At the end of the incubation, 10 μL of mixture of 2× detection mix [(EU3+Cryptate (1×)+Streptavidin-XL665 (final concentration: 62.5 nM) (HTRF KinEASE-TK kit Cat #62TK0PEC)] is added to the assay plate, shaken and incubated at 26.5° C. for 60 min. Plates are then read on a Perkin Elmer Envision for HTRF signal (665 nm reading/615 nm reading). After normalization to untreated controls, the percent inhibition of the HTRF signal at each compound concentration is calculated. The plot of percent inhibition versus the log of compound concentration is fit with a 4-parameter dose response equation to calculate IC50 values.

The target in test [3] is T3, JAK1-JH1 (Homo sapiens, UniProt P23458).
T3 construct: recombinant purified His or GST-tagged catalytic domain for each enzyme; made in house
T3 sequence (P23458 875-1153 limits assumed): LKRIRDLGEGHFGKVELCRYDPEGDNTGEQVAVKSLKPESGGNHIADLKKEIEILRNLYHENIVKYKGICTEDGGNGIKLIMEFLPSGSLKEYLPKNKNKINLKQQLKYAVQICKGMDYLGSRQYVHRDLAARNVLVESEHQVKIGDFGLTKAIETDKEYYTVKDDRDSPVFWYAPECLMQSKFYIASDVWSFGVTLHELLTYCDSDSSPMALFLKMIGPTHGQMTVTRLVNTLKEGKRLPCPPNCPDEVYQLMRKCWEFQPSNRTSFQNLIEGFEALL
The experiment in a line: HTRF-based selectivity assay, JAK1 catalytic domain. In kind it is biochemical. Particulars: kinase domain (JH1), ATP 21.43 μM. Here is the method:
as §2
For orientation: Time-resolved FRET reads energy transfer from a long-lived donor to a nearby acceptor.

In test [4] the target is T4, JAK2-JH1 (Homo sapiens, UniProt O60674).
T4 construct: recombinant purified His or GST-tagged catalytic domain for each enzyme; made in house
T4 sequence (O60674 849-1124 limits assumed): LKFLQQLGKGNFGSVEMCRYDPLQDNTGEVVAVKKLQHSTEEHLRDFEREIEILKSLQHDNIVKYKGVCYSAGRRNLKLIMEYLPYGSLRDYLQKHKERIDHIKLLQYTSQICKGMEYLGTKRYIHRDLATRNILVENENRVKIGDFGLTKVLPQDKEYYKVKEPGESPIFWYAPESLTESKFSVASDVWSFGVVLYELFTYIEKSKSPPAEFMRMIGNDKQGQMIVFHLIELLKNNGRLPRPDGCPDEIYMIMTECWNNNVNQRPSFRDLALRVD
The experiment in a line: HTRF-based selectivity assay, JAK2 catalytic domain. The format is biochemical. Particulars: kinase domain (JH1), ATP 14.7 μM. Here is the method: as §2

Test [5] addresses T5, JAK3-JH1 (Homo sapiens, UniProt P52333).
T5 construct: recombinant purified His or GST-tagged catalytic domain for each enzyme; purchased Carna biosciences 08-046
The experiment in a line: HTRF-based selectivity assay, JAK3 catalytic domain. In kind it is biochemical. The settings on record: kinase domain (JH1), ATP 2.12 μM. Here is the method: as §2

Test [6] has as its system IL-2. The experiment in a line: Selectivity assay (SEAP) IL-2 reporter cells. The format is cell-based. The settings on record: Homo sapiens, IL-2 reporter cells on HEK293 background, read-out: Selectivity assays (SEAP) nM or E-Max % IL-2.
Test [7] relates to IFN-γ. The experiment in a line: Selectivity assay (SEAP) IFN-γ reporter cells. In kind it is cell-based. Particulars: Homo sapiens, IFN-γ reporter cells on HEK293 background, read-out: Selectivity assays (SEAP) nM or E-Max % IFN-γ.
The test system of test [8] is IL-2-pSTAT5. The experiment in a line: STAT phosphorylation assay IL-2-pSTAT5. The format is cell-based. The settings on record: Homo sapiens, 0.25 h; IL-2 (20 ng/ml) 15 min, phospho-STAT5 Western blot normalized to GAPDH; read-out: Selectivity assays (STATs) % Inhibition IL-2-pSTAT5. Here is the method:
0.3 to 0.5×10^6 Reporter cells (IL-23, IL-2, IFNα or IFNγ on HEK293 background purchased from InvivoGen) were seeded per well in 0.8 mL of DMVEM cell medium supplemented with 100 U/ml-100 μg/ml Pen-Strep and 10% FBS in 12 or 6-well plates and incubated overnight at 370 C, 5% CO2, 95% humidity. 0.1 mL test compounds serially diluted in DMSO and further diluted (10×) in intermediate plate containing cell treatment medium were prepared and added to the wells. The plates were incubated at 37° C. for 1 hr. Control wells contained 1′% DMSO prepared in cell medium. Post incubation, respective reporter cells were stimulated with 0.1 mL of either IL-23 (50 ng/ml; Miltenyl Biotech, cat #130-095-758) for 45 min or IL-2 (20 ng/ml) (Miltenyl Biotech, cat #130-097-742) for 15 min or IFNα/β (10 ng/ml) (Invivogen, cat #rcyc-hifna2b) for 15 min or IFN-γ (50 ng/ml) (Invivogen, cat #rcyec-hifng) for 15 min. Post stimulation cells were washed with DPBS once and lysed with 100 μL of RIPA buffer and placed on ice for 5 min. […]
Samples were diluted 5× in cell lysis buffer and total protein concentration was determined in 96-well using Bradford Protein Assay following manufacturer's instructions. […]
(§3) Western blot results were analysed using Compass 2.7.1 software and phospho-STAT quantity (AUC values) was normalized to GAPDH quantity (AUC values) for each sample.
A general note: A western blot detects proteins with antibodies after separation by electrophoresis.

In test [9] the test system is IFN-γ-pSTAT1. The experiment in a line: STAT phosphorylation assay IFN-γ-pSTAT1. Particulars: Homo sapiens, 0.25 h; IFN-γ (50 ng/ml) 15 min, phospho-STAT1 Western blot normalized to GAPDH; read-out: Selectivity assays (STATs) % Inhibition IFN-γ-pSTAT1. The format is cell-based. Here is the method:
0.3 to 0.5×10^6 Reporter cells (IL-23, IL-2, IFNα or IFNγ on HEK293 background purchased from InvivoGen) were seeded per well in 0.8 mL of DMVEM cell medium supplemented with 100 U/ml-100 μg/ml Pen-Strep and 10% FBS in 12 or 6-well plates and incubated overnight at 370 C, 5% CO2, 95% humidity. 0.1 mL test compounds serially diluted in DMSO and further diluted (10×) in intermediate plate containing cell treatment medium were prepared and added to the wells. The plates were incubated at 37° C. for 1 hr. Control wells contained 1′% DMSO prepared in cell medium. Post incubation, respective reporter cells were stimulated with 0.1 mL of either IL-23 (50 ng/ml; Miltenyl Biotech, cat #130-095-758) for 45 min or IL-2 (20 ng/ml) (Miltenyl Biotech, cat #130-097-742) for 15 min or IFNα/β (10 ng/ml) (Invivogen, cat #rcyc-hifna2b) for 15 min or IFN-γ (50 ng/ml) (Invivogen, cat #rcyec-hifng) for 15 min. Post stimulation cells were washed with DPBS once and lysed with 100 μL of RIPA buffer and placed on ice for 5 min. The lysates were then transferred to 1.5 mL Eppendorf tubes and centrifuged for 5 minutes at 10000 rpm at 4° C. and the supernatants either stored at −80° C. or used for protein estimation.
Samples were diluted 5× in cell lysis buffer and total protein concentration was determined in 96-well using Bradford Protein Assay following manufacturer's instructions. Western blot assay was performed using Protein Simple Wes Master Kit (SM-W004/DM-001) and device, following manufacturer's instructions. 1 to 2 mg/mL of total proteins were loaded per sample in 4 μL volume; phospho-STAT1, 3 or 5 antibodies (1:25) and GAPDH antibodies were diluted as indicated.
as §3

In test [10] the target is T1, TYK2. The experiment in a line: HEK-Blue IL-23 reporter assay (SEAP) for TYK2 pseudokinase inhibition. Particulars: HEK-Blue IL-23 cells, 10 ng/mL human recombinant IL-23, SEAP reporter; read-out: IL23 IC50. Further details: HEK-Blue™ IL-23 and IFNα/β cells with a stably-integrated cytokine receptor and STAT3 or STAT1; host or cells: HEK-Blue IL-23 / HEK-Blue IFNα/β cells (HEK293 background). The format is cell-based. Summed up:
as §1
In general terms: A reporter such as luciferase makes a cellular process visible.

These results are taken from patent US12668594B2, “TYK2 inhibitors and uses thereof” (Sudo Biosciences Limited, priority 2020, dated 2026).

T5 sequence (P52333 822-1111 limits assumed): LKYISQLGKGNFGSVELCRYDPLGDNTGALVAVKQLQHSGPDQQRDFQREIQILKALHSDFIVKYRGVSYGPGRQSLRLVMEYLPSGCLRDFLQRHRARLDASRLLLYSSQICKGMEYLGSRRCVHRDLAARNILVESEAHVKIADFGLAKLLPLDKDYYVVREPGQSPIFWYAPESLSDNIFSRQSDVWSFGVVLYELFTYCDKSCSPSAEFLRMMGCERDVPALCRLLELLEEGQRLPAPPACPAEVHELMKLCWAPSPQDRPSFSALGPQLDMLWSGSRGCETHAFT

With `COc1cccc(-n2[nH]c(=O)c3cnc(Nc4cc(C)nc(C)n4)cc32)c1` [Compound I-17, 6-((2,6-dimethylpyrimidin-4-yl)amino)-1-(3-methoxyphenyl)-1,2-dihydro-3H-pyrazolo[4,3-c]pyridin-3-one], the IC50 was below 10 µM in [1]; 30 to 90 µM in [2]; above 90 µM in test [3]; 10 to 30 µM in test [4]; 10 to 30 µM in [5]; above 90000 nM in test [6]. In addition, the IC50 in test [7] was 30000 to 90000 nM; in test [8] it was 30 to 90 µM; in test [9], above 90 µM; in test [10], below 10 µM.
Take `COc1cccc(-n2[nH]c(=O)c3cnc(Nc4ccnc(C)n4)cc32)c1` [Compound I-49, 1-(3-methoxyphenyl)-6-((2-methylpyrimidin-4-yl)amino)-1,2-dihydro-3H-pyrazolo[4,3-c]pyridin-3-one]: the IC50 was below 10 µM in test [1]; above 90 µM in [2]; above 90 µM in [3]; above 90 µM in test [4]; above 90 µM in test [5]; above 90000 nM in test [6]. Also, the IC50 in test [7] was above 90000 nM; in test [10], below 10 µM.
Regarding `O=c1[nH]n(-c2ccccc2)c2cc(Nc3ccc(F)cn3)ncc12` [Compound I-2, 6-((5-fluoropyridin-2-yl)amino)-1-phenyl-1,2-dihydro-3H-pyrazolo[4,3-c]pyridin-3-one], the IC50 in test [1] is below 10 µM; in test [2], 30 to 90 µM; in test [3], 30 to 90 µM; in test [4], 10 to 30 µM; in [5], below 10 µM; in test [6] it was above 90000 nM. In addition, the IC50 is 30000 to 90000 nM in test [7] and below 10 µM in test [10].
Take `O=C(Nc1cc2c(cn1)c(=O)[nH]n2-c1ccccc1)C1CC1` [Compound I-1, N-(3-oxo-1-phenyl-2,3-dihydro-1H-pyrazolo[4,3-c]pyridin-6-yl)cyclopropanecarboxamide]: the IC50 was below 10 µM in test [1]; 30 to 90 µM in [2]; 30 to 90 µM in test [3]; 30 to 90 µM in [4]; 10 to 30 µM in test [5]; above 90000 nM in test [6]. The figures for the IC50 in test [7], in test [9] and in test [10] were 30000 to 90000 nM, above 90 µM and below 10 µM, respectively.
Take `Cc1cc(Nc2cc3c(cn2)c(=O)[nH]n3-c2ccccc2)nc(C)n1` [Compound I-3, 6-((2,6-dimethylpyrimidin-4-yl)amino)-1-phenyl-1,2-dihydro-3H-pyrazolo[4,3-c]pyridin-3-one]: the IC50 was below 10 µM in test [1]; 10 to 30 µM in test [2]; above 90 µM in test [3]; below 10 µM in test [4]; below 10 µM in test [5]; 30000 to 90000 nM in [6]. Moreover, the IC50 in test [7] was 10000 to 30000 nM; in test [8], above 90 µM; in [9] it was above 90 µM; in test [10], below 10 µM.
As to `Cc1cc(Nc2cc3c(cn2)c(=O)[nH]n3-c2ccc(OCC(F)(F)F)cc2)nc(C)n1` [Compound I-73, 6-((2,6-dimethylpyrimidin-4-yl)amino)-1-(4-(2,2,2-trifluoroethoxy)phenyl)-1,2-dihydro-3H-pyrazolo[4,3-c]pyridin-3-one], the IC50 in test [1] is below 10 µM; in [2], above 90 µM; in test [3] it was above 90 µM; in test [4], above 90 µM; in test [5], above 90 µM; in test [6], above 90000 nM. Besides, the figures for the IC50 in [7] and in [10] were above 90000 nM and below 10 µM, respectively.
In the case of `Cc1cc(Nc2cc3c(cn2)c(=O)[nH]n3-c2ccc(OC(F)(F)F)c(F)c2)nc(C)n1` [Compound I-94, 6-((2,6-dimethylpyrimidin-4-yl)amino)-1-(3-fluoro-4-(trifluoromethoxy)phenyl)-1,2-dihydro-3H-pyrazolo[4,3-c]pyridin-3-one], the IC50 was below 10 µM in test [1]; above 90 µM in [2]; above 90 µM in test [3]; above 90 µM in [4]; above 90 µM in test [5]; above 90000 nM in test [6]. The IC50 in test [7] was above 90000 nM; in test [10], below 10 µM.
